Experimental data: DBAASP
Converted amounts (≈) assume the structure as drawn. “And” between values parts separate entries of the source, which are not always exact repeats. Equal entries are not always repeated.

Key:
Experiment in all cases: ≥ marks a high value that may be exact or a test limit, other limits are often not marked, values filed in µg/mL are converted to µM
[1] = test system: Escherichia coli ATCC 25922
[2] = test system: Staphylococcus aureus ATCC 25923
[3] = test system: Pseudomonas aeruginosa ATCC 27853

MIC [1] [µM] | MIC [2] [µM] | MIC [3] | Compound
4.48 (≈ 20 µg/mL) |  |  | CC[C@H](C)[C@@H]1NC(=O)[C@H](CCCCN)NC(=O)[C@@H]2CCCN2C(=O)[C@H](Cc2cnc[nH]2)NC(=O)CNC(=O)[C@@H]2CSSC[C@@H]3NC(=O)[C@H](CO)NC(=O)CNC(=O)CNC(=O)[C@H](Cc4ccc(O)cc4)NC(=O)[C@H](CO)NC(=O)[C@H](CCSC)NC(=O)[C@@H](NC(=O)[C@@H](NC(=O)[C@@H](NC(=O)[C@@H]4CCCN4C(=O)[C@H](CO)NC(=O)[C@H](CC(N)=O)NC(=O)[C@@H](NC(=O)[C@H](CC(C)C)NC(=O)[C@@H](N)CCC(N)=O)[C@@H](C)CC)C(C)C)[C@@H](C)O)CSSC[C@H](NC(=O)[C@H](CCCN=C(N)N)NC1=O)C(=O)N[C@H](C(=O)N[C@@H](CCCN=C(N)N)C(=O)N[C@@H](CCCN=C(N)N)C(=O)N[C@@H](CCCCN)C(=O)O)CSSC[C@H](NC(=O)[C@H](CO)NC(=O)[C@H](CCCN=C(N)N)NC(=O)[C@H](CCC(N)=O)NC3=O)C(=O)N[C@@H](CC(N)=O)C(=O)NCC(=O)NCC(=O)N[C@@H](Cc1ccccc1)C(=O)N[C@@H](CCCN=C(N)N)C(=O)N[C@@H](CC(C)C)C(=O)NCC(=O)NCC(=O)N[C@@H](Cc1cnc[nH]1)C(=O)N2 [QLINSPVTCMSYGGSCQRSCNGGFRLGGHCGHPKIRCCRRK]
11.3 (≈ 29.5 µg/mL) |  |  | CC[C@H](C)[C@H](NC(=O)CNC(=O)[C@H](CCC(N)=O)NC(=O)[C@H](C)NC(=O)[C@@H](NC(=O)[C@H](CCCCN)NC(=O)[C@H](CCCCN)NC(=O)[C@H](CC(C)C)NC(=O)[C@H](C)NC(=O)[C@H](CC(N)=O)NC(=O)[C@H](CC(C)C)NC(=O)CN)C(C)C)C(=O)N[C@@H](Cc1cnc[nH]1)C(=O)N[C@@H](CCC(=O)O)C(=O)N[C@@H](C)C(=O)N[C@H](C(=O)N[C@@H](CCCCN)C(=O)N[C@@H](CC(C)C)C(=O)N[C@H](C(=O)N[C@@H](CC(N)=O)C(=O)N[C@@H](CC(N)=O)C(=O)N[C@@H](Cc1cnc[nH]1)C(=O)N[C@H](C(=O)N[C@@H](CCC(N)=O)C(N)=O)C(C)C)[C@@H](C)CC)[C@@H](C)CC [GLNALKKVAQGIHEAIKLINNHVQ]
5.76 (≈ 7.99 µg/mL) |  |  | CC[C@H](C)[C@H](NC(=O)[C@H](Cc1c[nH]c2ccccc12)NC(=O)[C@H](Cc1c[nH]c2ccccc12)NC(=O)[C@H](Cc1c[nH]c2ccccc12)NC(=O)[C@H](Cc1c[nH]c2ccccc12)NC(=O)[C@H](CCCCN)NC(=O)[C@H](CCCCN)NC(=O)[C@H](CCCCN)NC(=O)[C@@H](N)CCCCN)C(N)=O [KKKKWWWWI]
14.2 (≈ 16 µg/mL) | 7.11 (≈ 7.99 µg/mL) |  | CC[C@H](C)[C@H](NC(=O)[C@H](CCCN=C(N)N)NC(=O)[C@H](CCCCN)NC(=O)[C@H](CC(C)C)NC(=O)[C@H](CC(C)C)NC(=O)CN)C(=O)N[C@@H](CCCCN)C(=O)N[C@@H](C)C(=O)N[C@@H](CC(C)C)C(=O)N[C@@H](CC(C)C)C(N)=O [GLLKRIKALL]
 |  | 4 µM (≈ 11.5 µg/mL) | CC[C@H](C)[C@H](NC(=O)[C@H](CC(C)C)NC(=O)[C@H](C)NC(=O)[C@@H]1CCCN1C(=O)[C@H](CC(C)C)NC(=O)CNC(=O)[C@@H](NC(=O)[C@@H](NC(=O)[C@H](CC(C)C)NC(=O)[C@@H](NC(=O)[C@H](CCCCN)NC(=O)[C@H](CCCCN)NC(=O)[C@H](C)NC(=O)[C@H](C)NC(=O)[C@H](CO)NC(=O)[C@@H](NC(=O)[C@H](CC(C)C)NC(=O)[C@H](CCCCN)NC(=O)[C@H](CCCCN)NC(=O)[C@@H](NC(=O)[C@H](Cc1ccccc1)NC(=O)[C@H](CCCCN)NC(=O)[C@H](CCCCN)NC(=O)[C@H](Cc1c[nH]c2ccccc12)NC(=O)[C@@H](N)CCCCN)[C@@H](C)CC)[C@@H](C)O)C(C)C)[C@@H](C)O)[C@@H](C)O)C(=O)N[C@@H](CO)C(=O)O [KWKKFIKKLTSAAKKVLTTGLPALIS]
> 100 |  | > 100 µM | CC[C@H](C)[C@H](NC(=O)[C@H](Cc1ccc(O)cc1)NC(=O)[C@H](CCC(N)=O)NC(=O)[C@H](CC(C)C)NC(=O)[C@H](C)NC(=O)[C@H](CCCCN)NC(=O)[C@H](CCCCN)NC(=O)[C@H](CCSC)NC(=O)[C@H](CCCCN)NC(=O)[C@H](CCCCN)NC(=O)[C@H](CCCCN)NC(=O)[C@H](CCCN=C(N)N)NC(=O)[C@H](CCCN=C(N)N)NC(=O)[C@H](Cc1ccc(O)cc1)NC(=O)[C@@H](N)CCCN=C(N)N)C(=O)N[C@@H](CCCCN)C(=O)N[C@@H](CC(C)C)C(N)=O [RYRRKKKMKKALQYIKL]
 | 12.7 (≈ 25 µg/mL) |  | CC(C)C[C@H](NC(=O)[C@H](C)NC(=O)[C@@H](N)CO)C(=O)N[C@H](C(=O)NCC(=O)N[C@H]1CSSC[C@@H](C(=O)N[C@@H](Cc2ccccc2)C(=O)NCC(=O)N[C@@H](CCCN=C(N)N)C(=O)O)NC(=O)[C@@H]2CCCN2C(=O)[C@H](CCCCN)NC(=O)[C@@H]2CCCN2C(=O)[C@@H]2CCCN2C(=O)[C@H](Cc2ccc(O)cc2)NC(=O)[C@H](CO)NC(=O)[C@H](CCCCN)NC(=O)[C@H]([C@@H](C)O)NC(=O)CNC1=O)C(C)C [SALVGCGTKSYPPKPCFGR]
120 (≈ 378 µg/mL) |  |  | CC[C@H](C)[C@H](NC(=O)[C@@H](NC(=O)[C@@H](NC(=O)CNC(=O)[C@H](C)NC(=O)[C@@H](NC(=O)[C@H](CC(N)=O)NC(=O)[C@@H](NC(=O)[C@H](C)NC(=O)[C@H](CC(C)C)NC(=O)[C@H](CC(N)=O)NC(=O)[C@H](CCCCN)NC(=O)[C@@H](NC(=O)[C@@H](NC(=O)[C@H](CO)NC(=O)[C@H](CC(C)C)NC(=O)[C@H](Cc1ccccc1)NC(=O)CN)[C@@H](C)O)C(C)C)[C@@H](C)O)C(C)C)[C@@H](C)O)C(C)C)C(=O)N[C@@H](CC(=O)O)C(=O)N[C@H](C(=O)N[C@@H](CC(C)C)C(=O)N[C@@H](CCCCN)C(=O)N[C@H]1CSSC[C@@H](C(=O)N[C@@H](CCCN=C(N)N)C(=O)N[C@@H](CO)C(=O)O)NC(=O)CNC(=O)CNC(=O)[C@H]([C@@H](C)O)NC(=O)[C@H](C(C)C)NC(=O)[C@H](CCCCN)NC1=O)[C@@H](C)O [GFLSTVKNLATNVAGTVIDTLKCKVTGGCRS]
4.42 (≈ 9.98 µg/mL) |  |  | CC[C@H](C)[C@H](NC(=O)[C@H](C)NC(=O)CNC(=O)[C@H](C)NC(=O)[C@H](CCCCN)NC(=O)[C@H](CO)NC(=O)[C@H](C)NC(=O)[C@H](CCSC)NC(=O)CN)C(=O)N[C@@H](C)C(=O)NCC(=O)N[C@@H](CCCCN)C(=O)N[C@H](C(=O)N[C@@H](C)C(=O)N[C@@H](CCCCN)C(=O)N[C@H](C(=O)N[C@@H](C)C(=O)N[C@@H](Cc1c[nH]c2ccccc12)C(=O)N[C@@H](CCCCN)C(=O)N[C@@H](C)C(=O)N[C@@H](CC(C)C)C(=O)NCC(=O)NCC(=O)N[C@@H](CS)C(N)=O)C(C)C)[C@@H](C)CC [GMASKAGAIAGKIAKVAWKALGGC]
> 18 | > 18 |  | CC[C@H](C)[C@H](NC(=O)[C@H](CCCN=C(N)N)NC(=O)[C@H](CCCCN)NC(=O)[C@H](CC(C)C)NC(=O)[C@H](CC(C)C)NC(=O)[C@H](C)N)C(=O)N[C@@H](CCCCN)C(=O)N[C@H](C(=O)N[C@@H](CC(C)C)C(=O)N[C@@H](CC(C)C)C(N)=O)[C@@H](C)O [ALLKRIKTLL]
> 200 |  |  | CC[C@H](C)[C@H](NC(=O)[C@H](CCCN=C(N)N)NC(=O)[C@H](CCCCN)NC(=O)[C@H](CCSC)NC(=O)[C@H](CCSC)NC(=O)CN)C(=O)N[C@@H](CCCCN)C(=O)N[C@H](C(=O)N[C@@H](CCSC)C(=O)N[C@@H](CCSC)C(N)=O)[C@@H](C)O [GMMKRIKTMM]
 |  | 59.6 µM and 119 µM | CC(C)C[C@H](NC(=O)[C@H](CC(C)C)NC(=O)[C@H](CCCCN)NC(=O)[C@H](CCCCN)NC(=O)[C@H](C)NC(=O)[C@H](CC(C)C)NC(=O)[C@H](CCCCN)NC(=O)[C@H](CC(C)C)NC(=O)[C@@H](N)Cc1ccccc1)C(N)=O [FLKLAKKLL]
 | 10 (≈ 15.8 µg/mL) |  | CC(C)C[C@H](NC(=O)[C@H](CCCN=C(N)N)NC(=O)[C@H](CCCN=C(N)N)NC(=O)[C@H](CC(C)C)NC(=O)[C@H](Cc1c[nH]c2ccccc12)NC(=O)[C@H](CCCN=C(N)N)NC(=O)[C@H](Cc1c[nH]c2ccccc12)NC(=O)[C@@H](NC(=O)[C@H](CCCCN)NC(=O)[C@H](CCCN=C(N)N)NC(=O)[C@@H](N)CC(C)C)C(C)C)C(N)=O [LRKVWRWLRRL]
16 (≈ 29.7 µg/mL) |  |  | CC(C)C[C@H](NC(=O)[C@H](Cc1ccccc1)NC(=O)[C@@H]1CCCN1C(=O)[C@H](Cc1ccc(O)cc1)NC(=O)[C@H](Cc1ccc(O)cc1)NC(=O)[C@H](Cc1c[nH]c2ccccc12)NC(=O)[C@@H]1CCCN1C(=O)[C@H](Cc1ccccc1)NC(=O)[C@H](CCCN=C(N)N)NC(=O)[C@H](CCCN=C(N)N)NC(=O)[C@@H](N)C(C)C)C(=O)N[C@@H](CCCN=C(N)N)C(=O)N[C@@H](CCCN=C(N)N)C(N)=O [VRRFPWYYPFLRR]
69 (≈ 128 µg/mL) | 276 (≈ 512 µg/mL) |  | CC[C@H](C)[C@H](NC(=O)CNC(=O)[C@@H](NC(=O)[C@H](CCCCN)NC(=O)[C@@H](NC(=O)[C@H](CCCCN)NC(=O)CN)C(C)C)[C@@H](C)CC)C(=O)N[C@@H](CC(N)=O)C(=O)NCC(=O)N[C@@H](Cc1ccccc1)C(=O)NCC(=O)N[C@@H](CCCN=C(N)N)C(=O)N[C@H](C(=O)NCC(=O)N[C@@H](CCCN=C(N)N)C(=O)N[C@@H](CC(C)C)C(=O)N[C@H](C(=O)N[C@@H](C)C(=O)O)C(C)C)[C@@H](C)CC [GKVKIGINGFGRIGRLVA]
 |  | 32 µM (≈ 52 µg/mL) | CC(C)C[C@H](NC(=O)[C@H](Cc1c[nH]c2ccccc12)NC(=O)[C@H](C)NC(=O)CNC(=O)[C@H](Cc1c[nH]c2ccccc12)NC(=O)[C@H](CC(N)=O)NC(=O)[C@@H](N)CC(C)C)C(=O)N[C@@H](CCCCN)C(=O)N[C@@H](Cc1cnc[nH]1)C(=O)N[C@@H](Cc1c[nH]c2ccccc12)C(=O)N[C@@H](Cc1c[nH]c2ccccc12)C(=O)N[C@@H](CCCCN)C(=O)O [LNWGAWLKHWWK]
> 200 | > 200 |  | CC[C@H](C)[C@H](NC(=O)[C@H](C)NC(=O)[C@@H](NC(=O)[C@H](C)NC(=O)[C@H](CCCCN)NC(=O)[C@H](C)NC(=O)[C@H](CC(C)C)NC(=O)[C@H](CCCCN)NC(=O)CNC(=O)[C@H](CC(C)C)NC(=O)[C@@H](NC(=O)[C@H](CO)NC(=O)CNC(=O)[C@H](C)NC(=O)[C@@H](NC(=O)[C@H](CO)NC(=O)[C@H](C)NC(=O)[C@H](CCSC)NC(=O)CN)[C@@H](C)O)C(C)C)C(C)C)C(=O)NCC(=O)N[C@@H](C)C(=O)N[C@@H](CC(C)C)C(N)=O [GMASTAGSVLGKLAKAVAIGAL]
